Results: the supplement of paper PMC11061612

What was measured:
Assay in all cases: Bliss excess, mean over the matrix (fraction); higher = more synergy
[1] = tested on: ESS-1 (Other Solid Carcinomas)
How it was run: (§1)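 Cell lines grown in DMEM/F12 or RPMI with 10% FBS were plated in 1536-well plates and held 24 hours at 37°C, 5% CO2 before 72 hours of exposure to two-drug dose matrices, with DMSO typically at 0.2%. CellTiter-Glo 2.0 luminescence gave viability, which was converted to inhibition. Vehicle wells were set to 0 and blank wells to 1. Combination Emax is the second-highest inhibition in the matrix, and Bliss excess is the observed combination effect minus the expected EA + EB − EA·EB, where EA and EB are the single-agent effects.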

[2] = tested on: OV-56 (Ovarian Carcinoma)
How it was run: as §1

KS-1 (Glioblastoma) = tested on: KS-1 (Glioblastoma)
How it was run: as §1

EW-11 (Ewing's Sarcoma) = tested on: EW-11 (Ewing's Sarcoma)
How it was run: as §1

[3] = tested on: BE-13 (T-Lymphoblastic Leukemia)
How it was run: as §1

[4] = tested on: OE21 (Esophageal Squamous Cell Carcinoma)
How it was run: as §1

[5] = tested on: MHH-CALL-2 (B-Lymphoblastic Leukemia)
How it was run: as §1

[6] = tested on: KYAE-1 (Esophageal Adenocarcinoma)
How it was run: as §1

[7] = tested on: LS-123 (Colorectal Carcinoma)
How it was run: as §1

CAL-72 (Osteosarcoma) = tested on: CAL-72 (Osteosarcoma)
How it was run: as §1

SMILES: Cn1cnc2c(F)c(Nc3ccc(Br)cc3Cl)c(C(=O)NOCCO)cc21 [Selumetinib] + CC(C)n1c(=O)n(C)c2cnc3cc(F)c(-c4ccc(OCCCN5CCCCC5)nc4)cc3c21 [AZD1390] (first compound max 10 µM, 7x7, partner max 0.3 µM)
- Bliss excess [1]: -0.0044
- Bliss excess [2]: -0.0526
- Bliss excess (KS-1 (Glioblastoma)): -0.0384
- Bliss excess (EW-11 (Ewing's Sarcoma)): -0.0399
- Bliss excess [3]: -0.0283
- Bliss excess [4]: 0.014
- Bliss excess [5]: 0.0042
- Bliss excess [6]: -0.026
- Bliss excess [7]: 0.0194
- Bliss excess (CAL-72 (Osteosarcoma)): -0.0484

SMILES: Cn1cnc2c(F)c(Nc3ccc(Br)cc3Cl)c(C(=O)NOCCO)cc21 [Selumetinib] + CCN(CCO)CCCOc1ccc2c(Nc3cc(CC(=O)Nc4cccc(F)c4)[nH]n3)ncnc2c1 [AZD2811] (first compound max 10 µM, 7x7, partner max 1 µM)
- Bliss excess [1]: -0.0617
- Bliss excess [2]: -0.0677
- Bliss excess (KS-1 (Glioblastoma)): -0.0324
- Bliss excess (EW-11 (Ewing's Sarcoma)): -0.0705
- Bliss excess [3]: -0.0213
- Bliss excess [4]: 0.0238
- Bliss excess [5]: 0.306
- Bliss excess [6]: -0.0212
- Bliss excess [7]: 0.0199
- Bliss excess (CAL-72 (Osteosarcoma)): -0.0369

SMILES: Cn1cnc2c(F)c(Nc3ccc(Br)cc3Cl)c(C(=O)NOCCO)cc21 [Selumetinib] + C[C@@H]1COCCN1C2=NC(=NC(=C2)C3(CC3)[S@](=N)(=O)C)C4=C5C=CNC5=NC=C4 [AZD6738] (first compound max 10 µM, 7x7, partner max 10 µM)
- Bliss excess [1]: 0.024
- Bliss excess [2]: -0.0239
- Bliss excess (KS-1 (Glioblastoma)): -0.0315
- Bliss excess (EW-11 (Ewing's Sarcoma)): -0.0605
- Bliss excess [3]: -0.0181
- Bliss excess [4]: 0.0134
- Bliss excess [5]: 0.0085
- Bliss excess [6]: -0.0243
- Bliss excess [7]: 0.0709
- Bliss excess (CAL-72 (Osteosarcoma)): -0.0387

SMILES: CC(=O)Nc1cccc(-n2c(=O)n(C3CC3)c(=O)c3c(Nc4ccc(I)cc4F)n(C)c(=O)c(C)c32)c1 [Trametinib] + Cc1nc(-c2cn3c(n2)-c2ccc(-c4cnn(C(C)(C)C(N)=O)c4)cc2OCC3)n(C(C)C)n1 [Taselisib] (first compound max 1 µM, 7x7, partner max 10 µM)
- Bliss excess [1]: 0.114
- Bliss excess [2]: -0.0025
- Bliss excess (KS-1 (Glioblastoma)): 0.015
- Bliss excess (EW-11 (Ewing's Sarcoma)): 0.0443
- Bliss excess [3]: -0.0123
- Bliss excess [4]: 0.147
- Bliss excess [5]: 0.188
- Bliss excess [6]: 0.0462
- Bliss excess [7]: 0.0939
- Bliss excess (CAL-72 (Osteosarcoma)): -0.0264

SMILES: CC1(C)CCC(CN2CCN(c3ccc(C(=O)NS(=O)(=O)c4ccc(NCC5CCOCC5)c([N+](=O)[O-])c4)c(Oc4cnc5[nH]ccc5c4)c3)CC2)=C(c2ccc(Cl)cc2)C1 [Venetoclax] + C1CN(CCC1(C(=O)N[C@@H](CCO)C2=CC=C(C=C2)Cl)N)C3=NC=NC4=C3C=CN4 [Capivasertib] (first compound max 1 µM, 7x7, partner max 3 µM)
- Bliss excess [1]: -0.0498
- Bliss excess [2]: -0.0323
- Bliss excess (KS-1 (Glioblastoma)): -0.0161
- Bliss excess (EW-11 (Ewing's Sarcoma)): -0.0335
- Bliss excess [3]: -0.0684
- Bliss excess [4]: -0.009
- Bliss excess [5]: -0.0702
- Bliss excess [6]: -0.0582
- Bliss excess [7]: -0.0134
- Bliss excess (CAL-72 (Osteosarcoma)): -0.04

SMILES: CC1(C)CCC(CN2CCN(c3ccc(C(=O)NS(=O)(=O)c4ccc(NCC5CCOCC5)c([N+](=O)[O-])c4)c(Oc4cnc5[nH]ccc5c4)c3)CC2)=C(c2ccc(Cl)cc2)C1 [Venetoclax] + C=CCn1c(=O)c2cnc(Nc3ccc(N4CCN(C)CC4)cc3)nc2n1-c1cccc(C(C)(C)O)n1 [AZD1775] (first compound max 1 µM, partner max 1 µM)
- Bliss excess [1]: 0.0835
- Bliss excess [2]: -0.0114
- Bliss excess (KS-1 (Glioblastoma)): 0.0134
- Bliss excess (EW-11 (Ewing's Sarcoma)): 0.0341
- Bliss excess [3]: 0.0227
- Bliss excess [4]: 0.0095
- Bliss excess [5]: -0.0382
- Bliss excess [6]: -0.033
- Bliss excess [7]: -0.0165
- Bliss excess (CAL-72 (Osteosarcoma)): 0.0256

SMILES: CC1(C)CCC(CN2CCN(c3ccc(C(=O)NS(=O)(=O)c4ccc(NCC5CCOCC5)c([N+](=O)[O-])c4)c(Oc4cnc5[nH]ccc5c4)c3)CC2)=C(c2ccc(Cl)cc2)C1 [Venetoclax] + CCN(CCO)CCCOc1ccc2c(Nc3cc(CC(=O)Nc4cccc(F)c4)[nH]n3)ncnc2c1 [AZD2811] (first compound max 1 µM, 7x7, partner max 1 µM)
- Bliss excess [1]: 0.0506
- Bliss excess [2]: 0.0214
- Bliss excess (KS-1 (Glioblastoma)): -0.0516
- Bliss excess (EW-11 (Ewing's Sarcoma)): -0.0186
- Bliss excess [3]: -0.0468
- Bliss excess [4]: 0.0005
- Bliss excess [5]: -0.01
- Bliss excess [6]: -0.0002
- Bliss excess [7]: -0.0437
- Bliss excess (CAL-72 (Osteosarcoma)): -0.0984

SMILES: CC1(C)CCC(CN2CCN(c3ccc(C(=O)NS(=O)(=O)c4ccc(NCC5CCOCC5)c([N+](=O)[O-])c4)c(Oc4cnc5[nH]ccc5c4)c3)CC2)=C(c2ccc(Cl)cc2)C1 [Venetoclax] + CN(C)CCCOc1ccc(-c2ccc3ncc4c(c3c2)n(C2CCOCC2)c(=O)n4C)cn1 [AZD0156] (first compound max 1 µM, 7x7, partner max 1 µM)
- Bliss excess [1]: -0.0515
- Bliss excess [2]: 0.0022
- Bliss excess (KS-1 (Glioblastoma)): -0.007
- Bliss excess (EW-11 (Ewing's Sarcoma)): 0.0067
- Bliss excess [3]: 0.0084
- Bliss excess [4]: -0.0165
- Bliss excess [5]: 0.0128
- Bliss excess [6]: -0.0166
- Bliss excess [7]: -0.0169
- Bliss excess (CAL-72 (Osteosarcoma)): -0.0002

SMILES: CC1(C)CCC(CN2CCN(c3ccc(C(=O)NS(=O)(=O)c4ccc(NCC5CCOCC5)c([N+](=O)[O-])c4)c(Oc4cnc5[nH]ccc5c4)c3)CC2)=C(c2ccc(Cl)cc2)C1 [Venetoclax] + COc1cc(Nc2ncc3c(n2)-c2ccc(Cl)cc2C(c2c(F)cccc2OC)=NC3)ccc1C(=O)O [Alisertib] (first compound max 1 µM, 7x7, partner max 10 µM)
- Bliss excess [1]: 0.0748
- Bliss excess [2]: 0.001
- Bliss excess (KS-1 (Glioblastoma)): 0.0145
- Bliss excess (EW-11 (Ewing's Sarcoma)): 0.0369
- Bliss excess [3]: -0.003
- Bliss excess [4]: 0.0433
- Bliss excess [5]: 0.165
- Bliss excess [6]: -0.119
- Bliss excess [7]: 0.0288
- Bliss excess (CAL-72 (Osteosarcoma)): -0.049

SMILES: CC1(C)CCC(CN2CCN(c3ccc(C(=O)NS(=O)(=O)c4ccc(NCC5CCOCC5)c([N+](=O)[O-])c4)c(Oc4cnc5[nH]ccc5c4)c3)CC2)=C(c2ccc(Cl)cc2)C1 [Venetoclax] + C[C@@H]1COCCN1C2=NC(=NC(=C2)C3(CC3)[S@](=N)(=O)C)C4=C5C=CNC5=NC=C4 [AZD6738] (first compound max 1 µM, 7x7, partner max 10 µM)
- Bliss excess [1]: 0.0147
- Bliss excess [2]: -0.0475
- Bliss excess (KS-1 (Glioblastoma)): -0.0368
- Bliss excess (EW-11 (Ewing's Sarcoma)): 0.0321
- Bliss excess [3]: -0.0204
- Bliss excess [4]: -0.0357
- Bliss excess [5]: -0.0357
- Bliss excess [6]: -0.0387
- Bliss excess [7]: -0.0395
- Bliss excess (CAL-72 (Osteosarcoma)): -0.0313
